The values below come from ChEMBL document CHEMBL1137242, “Application of azide-alkyne cycloaddition 'click chemistry' for the synthesis of Grb2 SH2 domain-binding macrocycles” (Bioorg Med Chem Lett, 2006).

Starred links: 1 amine or outer side, 2 acyl side, 3 side chain; linkers in the order of their positions; H or OH if unused. Non-standard residues stand in square brackets, D forms with d. Residues, ends and D or L forms follow the SMILES beside them. *: point of attachment. Pmp = N[C@@H](Cc1ccc(CP(=O)(O)O)cc1)C(=O)O; X1 = O=C(Cn1cc(CCCN[*:1])nn1)[*:2]; Ac6c = NC1(C(=O)O)CCCCC1; NHPentyl = CCCCCN*

As a reminder, the Kd is the equilibrium constant for the complex coming apart.

For this test, the target named is Growth factor receptor-bound protein 2 (Homo sapiens, UniProt P62993). The test is described as follows: Binding affinity to Grb2-SH2 domain.
Sequence of Growth factor receptor-bound protein 2 (P62993 whole entry, the tested form may be a part): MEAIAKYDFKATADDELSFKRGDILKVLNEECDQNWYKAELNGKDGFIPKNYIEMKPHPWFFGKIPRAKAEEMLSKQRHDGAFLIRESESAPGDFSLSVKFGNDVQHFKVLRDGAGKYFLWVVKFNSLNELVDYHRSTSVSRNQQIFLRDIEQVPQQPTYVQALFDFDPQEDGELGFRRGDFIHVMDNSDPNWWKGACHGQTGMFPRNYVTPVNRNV
In the case of `NC(=O)C[C@@H]1NC(=O)C2(CCCCC2)NC(=O)[C@H](Cc2ccc(CP(=O)(O)O)cc2)NC(=O)Cn2cc(nn2)CCCNC1=O`, the affinity, expressed as Kd, was 230 nM.
The same measure for `CCCCCNC(=O)[C@H](CC(N)=O)NC(=O)C1(NC(=O)[C@H](Cc2ccc(CP(=O)(O)O)cc2)NC(=O)Cn2cc(CCCNC(=O)[C@H](CC(N)=O)NC(=O)C3(NC(=O)[C@H](Cc4ccc(CP(=O)(O)O)cc4)NC(C)=O)CCCCC3)nn2)CCCCC1` (Ac-[Pmp][Ac6c]N[X1][Pmp][Ac6c]N-NHPentyl): 1.1 nM.
To `NC(=O)C[C@@H]1NC(=O)C2(CCCCC2)NC(=O)[C@@H](Cc2ccc(CP(=O)(O)O)cc2)NC(=O)Cn2cc(nn2)CCCNC(=O)[C@H](CC(N)=O)NC(=O)C2(CCCCC2)NC(=O)[C@@H](Cc2ccc(CP(=O)(O)O)cc2)NC(=O)Cn2cc(nn2)CCCNC1=O` belongs over 1000 nM.
To `NC(=O)C[C@@H]1NC(=O)C2(CCCCC2)NC(=O)[C@H](Cc2ccc(CP(=O)(O)O)cc2)NC(=O)Cn2cc(nn2)CCCNC(=O)[C@H](CC(N)=O)NC(=O)C2(CCCCC2)NC(=O)[C@H](Cc2ccc(CP(=O)(O)O)cc2)NC(=O)Cn2cc(nn2)CCCNC1=O` belongs 1.8 nM.
Compound `NC(=O)C[C@@H]1NC(=O)C2(CCCCC2)NC(=O)[C@@H](Cc2ccc(CP(=O)(O)O)cc2)NC(=O)Cn2cc(nn2)CCCNC1=O` showed a Kd of over 1000 nM.
The same measure for `C#CCCCNC(=O)[C@H](CC(N)=O)NC(=O)C1(NC(=O)[C@H](Cc2ccc(CP(=O)(O)O)cc2)NC(=O)CN=[N+]=[N-])CCCCC1`: over 1000 nM.
